The text below walks through data of US11312727B1, “Macrocyclic flu endonuclease inhibitors” (Janssen BioPharma, Inc., priority 2018, dated 2022).

Structures are written as SMILES.

By EC50 is commonly meant the concentration giving half of the maximal effect. The CC50 is the concentration giving 50% cytotoxicity. Low values mean greater toxicity to the cells, high ones lower toxicity to the cells.

For data set [1], the system named is Influenza strain A549 A/WSN/33 (H1N1). Put plainly: microbe, parasite or virus in culture. The format is cell-based. The following applies: Influenza A virus, A549, 20 h, A549 cells, influenza A/WSN/33 (H1N1), 20 hours incubation; read-out: A549_A(H1N1) EC50.
Data set [2] is described as follows: in vitro. Particulars: human, CC50, uninfected A549 cells, CellTiter-Glo. For orientation: Cellular ATP, detected with luciferase, serves as a proxy for viable cell number.

In the case of `O=C1c2c(O)c(=O)ccn2N2CN1[C@@H](C1CC1)/C=C/COc1c(ccc(F)c1F)[C@@H]2c1ccccc1` (single isomer, unassigned) [Compound 152AA, (9*S,18*S,*E)-9-cyclopropyl-3,4-difluoro-12-hydroxy-18-phenyl-6,9-dihydro-18H-10,17-methanobenzo[b]pyrido[1,2-f][1]oxa[5,6,9]triazacyclotridecine-11,13-dione], the concentration for a half-maximal effect (EC50) in data set [1] is above 0.05 µM. In data set [2], this compound showed a half-maximal cytotoxic concentration (CC50) above 0.1 µM.

As to `O=C1c2c(O)c(=O)ccn2N2CN1[C@H](C1CC1)/C=C/COc1c(ccc(F)c1F)[C@@H]2c1ccccc1` (single isomer, unassigned) [Compound 152AB, (9*R,18*S,*E)-9-cyclopropyl-3,4-difluoro-12-hydroxy-18-phenyl-6,9-dihydro-18H-10,17-methanobenzo[b]pyrido[1,2-f][1]oxa[5,6,9]triazacyclotridecine-11,13-dione], the EC50 in data set [1] is above 0.05 µM. Further, the CC50 in data set [2] was above 0.1 µM.

As for `O=C1c2c(O)c(=O)ccn2N2CN1[C@@H](C1CC1)/C=C/COc1c(ccc(F)c1F)[C@H]2c1ccccc1` (single isomer, unassigned) [Compound 152BA, (9*S,18*R,*E)-9-cyclopropyl-3,4-difluoro-12-hydroxy-18-phenyl-6,9-dihydro-18H-10,17-methanobenzo[b]pyrido[1,2-f][1]oxa[5,6,9]triazacyclotridecine-11,13-dione], the 50% effective concentration (EC50) in data set [1] was 0.0013 µM. In addition, the CC50 in data set [2] is above 0.2 µM.

Turning to `O=C1c2c(O)c(=O)ccn2N2CN1[C@H](C1CC1)/C=C/COc1c(ccc(F)c1F)[C@H]2c1ccccc1` (single isomer, unassigned) [Compound 152BB, (9*R,18*R,*E)-9-cyclopropyl-3,4-difluoro-12-hydroxy-18-phenyl-6,9-dihydro-18H-10,17-methanobenzo[b]pyrido[1,2-f][1]oxa[5,6,9]triazacyclotridecine-11,13-dione], in data set [1], the EC50 was determined as 0.0018 µM. The same compound returned a CC50 in data set [2] above 0.2 µM.

As to `COC[C@@H]1/C=C/COc2c(ccc(F)c2F)[C@H](c2ccccc2)N2CN1C(=O)c1c(O)c(=O)ccn12` (single isomer, unassigned) [Compound 153AA, (9*S,18*S,*E)-3,4-difluoro-12-hydroxy-9-(methoxymethyl)-18-phenyl-6,9-dihydro-18H-10,17-methanobenzo[b]pyrido[1,2-f][1]oxa[5,6,9]triazacyclotridecine-11,13-dione], the concentration giving a half-maximal response (EC50) in data set [1] is above 0.05 µM. This compound came in with a cytotoxic concentration (CC50) in data set [2] above 0.1 µM.

With `COC[C@H]1/C=C/COc2c(ccc(F)c2F)[C@H](c2ccccc2)N2CN1C(=O)c1c(O)c(=O)ccn12` (single isomer, unassigned) [Compound 153AB, (9*R,18*S,*E)-3,4-difluoro-12-hydroxy-9-(methoxymethyl)-18-phenyl-6,9-dihydro-18H-10,17-methanobenzo[b]pyrido[1,2-f][1]oxa[5,6,9]triazacyclotridecine-11,13-dione], in data set [1], the 50% effective concentration (EC50) was above 0.05 µM. This compound showed a CC50 in data set [2] above 0.1 µM.

As to `COC[C@@H]1/C=C/COc2c(ccc(F)c2F)[C@@H](c2ccccc2)N2CN1C(=O)c1c(O)c(=O)ccn12` (single isomer, unassigned) [Compound 153BA, (9*S,18*R,*E)-3,4-difluoro-12-hydroxy-9-(methoxymethyl)-18-phenyl-6,9-dihydro-18H-10,17-methanobenzo[b]pyrido[1,2-f][1]oxa[5,6,9]triazacyclotridecine-11,13-dione], the EC50 in data set [1] was 0.0042 µM. For the same compound, in data set [2], the CC50 is above 0.1 µM.

`COC[C@H]1/C=C/COc2c(ccc(F)c2F)[C@@H](c2ccccc2)N2CN1C(=O)c1c(O)c(=O)ccn12` (single isomer, unassigned) [Compound 153BB, (9*R,18*R,*E)-3,4-difluoro-12-hydroxy-9-(methoxymethyl)-18-phenyl-6,9-dihydro-18H-10,17-methanobenzo[b]pyrido[1,2-f][1]oxa[5,6,9]triazacyclotridecine-11,13-dione]: the half-maximal effective concentration (EC50) in data set [1] was 0.0026 µM. In data set [2], this compound displayed a CC50 above 0.1 µM.

For the compound `CC[C@@H]1/C=C/COc2c(F)cccc2[C@@H](c2ccccn2)N2CN1C(=O)c1c(O)c(=O)ccn12` (single isomer, unassigned) [Compound 154AA, (9*R,18*S,*E)-9-ethyl-4-fluoro-12-hydroxy-18-(pyridin-2-yl)-6,9-dihydro-18H-10,17-methanobenzo[b]pyrido[1,2-f][1]oxa[5,6,9]triazacyclotridecine-11,13-dione], in data set [1], the 50% effective concentration (EC50) is above 0.05 µM. For the same compound, the CC50 in data set [2] is above 0.1 µM.

Turning to `CC[C@H]1/C=C/COc2c(F)cccc2[C@@H](c2ccccn2)N2CN1C(=O)c1c(O)c(=O)ccn12` (single isomer, unassigned) [Compound 154AB, (9*S,18*S,*E)-9-ethyl-4-fluoro-12-hydroxy-18-(pyridin-2-yl)-6,9-dihydro-18H-10,17-methanobenzo[b]pyrido[1,2-f][1]oxa[5,6,9]triazacyclotridecine-11,13-dione], in data set [1], the EC50 was above 0.05 µM. In data set [2], this compound yielded a CC50 above 0.1 µM.

For the compound `CC[C@@H]1/C=C/COc2c(F)cccc2[C@H](c2ccccn2)N2CN1C(=O)c1c(O)c(=O)ccn12` (single isomer, unassigned) [Compound 154BA, (9*R,18*R,*E)-9-ethyl-4-fluoro-12-hydroxy-18-(pyridin-2-yl)-6,9-dihydro-18H-10,17-methanobenzo[b]pyrido[1,2-f][1]oxa[5,6,9]triazacyclotridecine-11,13-dione], in data set [1], the half-maximal effective concentration (EC50) came out at 0.0068 µM. In addition, the CC50 in data set [2] was above 0.1 µM.

In the case of `CC[C@H]1/C=C/COc2c(F)cccc2[C@H](c2ccccn2)N2CN1C(=O)c1c(O)c(=O)ccn12` (single isomer, unassigned) [Compound 154BB, (9*S,18*R,*E)-9-ethyl-4-fluoro-12-hydroxy-18-(pyridin-2-yl)-6,9-dihydro-18H-10,17-methanobenzo[b]pyrido[1,2-f][1]oxa[5,6,9]triazacyclotridecine-11,13-dione], the concentration giving a half-maximal response (EC50) in data set [1] was found to be 0.0034 µM. For the same compound, the CC50 in data set [2] was above 0.1 µM.

As for `Cc1ccccc1[C@@H]1c2ccc(F)c(F)c2OC/C=C\CN2CN1n1ccc(=O)c(O)c1C2=O` (single isomer, unassigned) [Compound 155A, (18*R,*Z)-3,4-difluoro-12-hydroxy-18-(o-tolyl)-6,9-dihydro-18H-10,17-methanobenzo[b]pyrido[1,2-f][1]oxa[5,6,9]triazacyclotridecine-11,13-dione], the EC50 in data set [1] is 0.0012 µM. In addition, the 50% cytotoxic concentration (CC50) in data set [2] was above 0.1 µM.

Turning to `Cc1ccccc1C1c2ccc(F)c(F)c2OC/C=C\CN2CN1n1ccc(=O)c(O)c1C2=O` (single isomer, unassigned) [Compound 155B, (18*S,*Z)-3,4-difluoro-12-hydroxy-18-(o-tolyl)-6,9-dihydro-18H-10,17-methanobenzo[b]pyrido[1,2-f][1]oxa[5,6,9]triazacyclotridecine-11,13-dione], the EC50 in data set [1] is above 0.05 µM. In data set [2], this compound showed a CC50 above 0.1 µM.

For `O=C1c2c(O)c(=O)ccn2N2CN1C1(/C=C/COc3cccc4c3[C@H]2c2ccccc2SC4)CCCC1` (single isomer, unassigned) [Compound 156A, (17a′*S,*E)-12′-hydroxy-2′,17a′-dihydro-6′H-spiro[cyclopentane-1,9′-[3,4](epiprop[1]en[1]yl[3]ylidene)[10,17]methanobenzo[6,7]thiepino[4,5-c]pyrido[1,2-f][1]oxa[5,6,9]triazacyclotridecine]-11′,13′-dione], in data set [1], the EC50 is 0.00051 µM. In data set [2], the CC50 was above 0.1 µM.

In the case of `CC(C)(C)[C@H]1/C=C/COc2cccc3c2[C@@H](c2ccccc2SC3)N2CN1C(=O)c1c(O)c(=O)ccn12` (single isomer, unassigned) [Compound 157A, (9*R,17a*S,*E)-9-(tert-butyl)-12-hydroxy-2,6,9,17a-tetrahydro-3,4-(epiprop[1]en[1]yl[3]ylidene)-10,17-methanobenzo[6,7]thiepino[4,5-c]pyrido[1,2-f][1]oxa[5,6,9]triazacyclotridecine-11,13-dione], the half-maximal effective concentration (EC50) in data set [1] was determined as 0.0013 µM. For the same compound, the CC50 in data set [2] is above 0.1 µM.

As for `CC(C)(C)[C@@H]1/C=C/COc2cccc3c2[C@H](c2ccccc2SC3)N2CN1C(=O)c1c(O)c(=O)ccn12` (single isomer, unassigned) [Compound 157B, (9*S,17a*R,*E)-9-(tert-butyl)-12-hydroxy-2,6,9,17a-tetrahydro-3,4-(epiprop[1]en[1]yl[3]ylidene)-10,17-methanobenzo[6,7]thiepino[4,5-c]pyrido[1,2-f][1]oxa[5,6,9]triazacyclotridecine-11,13-dione], the half-maximal effective concentration (EC50) in data set [1] was above 0.05 µM. In addition, the CC50 in data set [2] was above 0.1 µM.

As for `CC(C)c1ccccc1[C@H]1c2ccc(F)c(F)c2OC/C=C\CN2CN1n1ccc(=O)c(O)c1C2=O` (single isomer, unassigned) [Compound 158A, (18*S,*Z)-3,4-difluoro-12-hydroxy-18-(2-isopropylphenyl)-6,9-dihydro-18H-10,17-methanobenzo[b]pyrido[1,2-f][1]oxa[5,6,9]triazacyclotridecine-11,13-dione], the EC50 in data set [1] is above 0.05 µM. This compound showed a CC50 in data set [2] above 0.1 µM.

As to `CC(C)c1ccccc1[C@@H]1c2ccc(F)c(F)c2OC/C=C\CN2CN1n1ccc(=O)c(O)c1C2=O` (single isomer, unassigned) [Compound 158B, (18*R,*Z)-3,4-difluoro-12-hydroxy-18-(2-isopropylphenyl)-6,9-dihydro-18H-10,17-methanobenzo[b]pyrido[1,2-f][1]oxa[5,6,9]triazacyclotridecine-11,13-dione], the EC50 in data set [1] was above 0.05 µM. In data set [2], this compound came in with a CC50 above 0.1 µM.

With `O=C1c2c(O)c(=O)ccn2N2CN1C1(/C=C/COc3cc(F)c(F)c4c3[C@@H]2c2ccccc2SC4)CCC1` (single isomer, unassigned) [Compound 159A, (17a′*R,*E)-24′,25′-difluoro-12′-hydroxy-2′,17a′-dihydro-6′H-spiro[cyclobutane-1,9′-[3,4](epiprop[1]en[1]yl[3]ylidene)[10,17]methanobenzo[6,7]thiepino[4,5-c]pyrido[1,2-f][1]oxa[5,6,9]triazacyclotridecine]-11′,13′-dione], in data set [1], the concentration giving a half-maximal response (EC50) was above 0.05 µM. Also, in data set [2], the CC50 was above 0.1 µM.
